{
  "source": "patent US20070037751A1",
  "about": "“Uses of secretagogues like ghrelin in cancer cachexia and for stimulating appetite” (priority 2003, published 2007)",
  "key": {"[1]": {"assay": "Daily subcutaneous ghrelin for 8 weeks in gastrectomised and sham-operated mice (Example 7)", "type": "in vivo", "method": "Mice were subjected to gastrectomy or to sham operation. Gastrectomy was carried out by resecting the glandular stomach (antrum and fundus), followed by anastomozing the duodenum and the rumen end-to-end. The mortality associated with gastrectomy was 10%. Some of the gastrectomised and sham-operated mice received a subcutaneous dose of ghrelin (12 nmol) daily for 8 weeks. Controls received saline. […] After 8 weeks the mice were killed by decapitation (16-18 h after the last injection). Blood was collected and plasma stored at −20° C. for measurement of ghrelin (see below). Lean tissue was analysed by dual energy x-ray absorptiometry (DXA) (PIXImus, Lunar Corporation, Madison, […]., USA). White adipose tissue (WAT) (mesenteric, retroperitoneal-renal, gonadal and inguinal) and intrascapular brown adipose tissue (BAT) was dissected out and weighed\n(§1) Measurement of circulating ghrelin: If not otherwise stated, determination of circulating ghrelin was carried out on plasma from animals at sacrifice (end-point analysis). Immunoactive ghrelin was measured in 20 pi plasma with a radioimmunoassay (RIA) that uses an antiserum raised against acylated human ghrelin (Phoenix Pharmaceuticals); ^125I-labelled ghrelin-28 was used as a tracer a rat ghrelin-28 as standard. […] Plasma concentrations were expressed as pmol equivalents of rat ghrelin-28 per liter. Active (octanoylated) ghrelin was determined in 50 μl plasma using an enzyme linked immunosorbent assay (ELISA) kit (LINCO Research, St. Charles, Mo., USA).\nStatistical analysis: Values are expressed as means±S.E.M. Differences were analyzed by the student t-test or by one-way analysis of variance (ANOVA), using Bonferroni's multiple comparison test. A p value of less than 0.05 was considered statistically significant."}, "[2]": {"assay": "Pharmacokinetics of ghrelin formulations after subcutaneous administration in rats (Examples 9 and 10)", "type": "in vivo, Sprague Dawley rats", "set-up": "Tmax: dose or concentration left out as unconfirmed", "conditions": "rat", "method": "Two different types of liposomes were made containing dipalmitoyl DL-α-phosphatidylcholine (DPPC ) and a mixture of phosphatidylcholin and cholesterol (PC/Chol), respectively. The liposomes were prepared by dissolving and mixing the lipids in chloroform. Chloroform was removed overnight by rotation evaporation, and the resulting lipid film was first striped with ethanol (99,9%) and then left overnight in the rotation evaporator. The multilamellar liposomes were formed by hydration in HEPES-buffer (10 mM HEPES, 50 mM KCl, 1mM NaN3, pH=5,5) for at least 1 h. The hydration temperature was 51° C. (10° C. above the Tm of the phospholipids). Subsequently, the liposomes were sonicated for 30 sec every 10 min during one hour using a tip sonicator. One hundred nanometer unilamellar liposomes were made from the multilamellar liposomes by extrusion through 100 nm polycarbonate filters. Size measurements were performed by dynamic light scattering (DLS) using a Zetasizer 4 (Malvern, UK). Tm were determined by Differential Scanning Caleometry (DSC; MicroCal™ Incorporated). Ghrelin were added approximately 2 h before the administration of the formulation to the animals in doses of 60 μg per 500 μL\nIntralipid 30% were purchased from the local Pharmacy on the Danish University Hospital Copenhagen (Rigshospitalet). 1000 mL contain: purified soybean oil 300 g, purified egg phospholipids 12 g, glycerol anhydrous 16.7 g, water for injection q.s. ad 1 000 mL. pH is adjusted with sodium hyroxide to pH approximately 7.5.\nAnimals: Thirty (30) male Sprague Dawley rats (aged 6-7 weeks; approximately 300 g; Charles River, Germany) were used. Upon arrival at the animal facility, they were housed 3 per cage for one week, and subsequently transferred to individual cages with access to food and water ad libitum.\nAfter one week of singly housing, the rats were ready for experiments and were randomized into 5 weight-matched groups (6 pr. group):\nAll compounds were administered by subcutaneous administration (0.5 ml/300g rat)\nOn the experimental day (0800-0930), 15 minute prior to receiving the test dose, a 200 μl blood sample was drawn from the tail vein. At time point 0 a second blood sample was drawn and immediately after rats received an sc injection with test compound according to the groups listed above. Seven more samples were drawn (volume 200 μl) at time points: 15, 30, 45, 60, 90, 120 and 240 minutes post injection according to study outline. The total blood volume drawn was 1800 μl (approx. 10% of total blood volume).\nBlood samples were kept on ice until plasma separation could be performed. After centrifugation (4000 rpm for 10 minutes) plasma was transferred to vials/tubes containing 5 μL 1N HCl og 5 μL 2mg/mL solution of Phenylmethylsulfonyl fluoride in isopropanol.\nThe active (acylated) ghrelin in the plasma samples was measured by use of a RIA assay (Linco Research, Inc) according to the manufactures protocol."}, "[3]": {"tested_on": "growth hormone", "assay": "Plasma growth hormone before and after subcutaneous ghrelin in a cancer cachexia patient (Example 4)", "type": "in vivo, human", "conditions": "before and after the two subcutaneous injections, 0.8 to 1.5 micrograms/kg twice daily, one patient", "method": "(§2) The patient was treated with subcutaneous injections of 0.8 to 1.5 micrograms/kg ghrelin twice daily for 4 weeks. The injections were taken before meals.\nPharmacokinetic and pharmacodynamic assessment was performed at day 1 and 2 by blood sampling before and after each injection and measurement of plasma levels of growth hormone and active and total ghrelin."}, "[4]": {"assay": "Clinical follow-up of a cancer cachexia patient treated with ghrelin (Example 4)", "type": "in vivo, human", "method": "as §2\nThe patient was followed weekly by standard laboratory tests, Cachexia/anorexia and quality of life questionnaires, body-weight, body-composition analysis (DEXA-scan) and chest-x-ray or thorax-CT among others."}, "[5]": {"assay": "Clinical follow-up of a cancer cachexia patient treated with ghrelin (Example 4)", "type": "in vivo, human", "conditions": "weekly IV injections, before the subcutaneous treatment"}, "[6]": {"conditions": "infusion for 90 minutes, cancer cachexia patients; cited from earlier work"}, "[7]": {"conditions": "continuous intravenous infusion for 270 minutes, 5 pmol/kg/min; cited from earlier work"}, "[8]": {"assay": "Plasma ghrelin after subcutaneous bolus injection of ghrelin in mice (Example 6)", "type": "in vivo", "method": "as §1, with “6+6 mice received 12 or 24 nmol” for “Measurement”, “of” for “of circulating ghrelin: If not otherwise stated, determination of circulating”, “by a subcutaneous bolus injection in the neck (corresponding to 400 and 800 nmol kg^−1, respectively). […]” for “was carried out on plasma from animals at sacrifice (end-point analysis).”, “μl” for “pi”"}, "[9]": {"conditions": "gastrectomised mice, 12 nmol sc daily, 8 weeks"}, "[10]": {"conditions": "ghrelin (200 mg/kg) in a buffer"}, "[11]": {"conditions": "subcutaneous 0.8 to 1.5 micrograms/kg twice daily for 4 weeks, one patient"}},
  "note": "Entries after “also recorded” stand apart in the source; their conditions may differ.",
  "data": [
    {"molecule": "CCCCCCCC(=O)OC[C@H](NC(=O)[C@H](CO)NC(=O)CN)C(=O)N[C@@H](Cc1ccccc1)C(=O)N[C@@H](CC(C)C)C(=O)N[C@@H](CO)C(=O)N1CCC[C@H]1C(=O)N[C@@H](CCC(=O)O)C(=O)N[C@@H](Cc1cnc[nH]1)C(=O)N[C@@H](CCC(N)=O)C(=O)N[C@@H](CCCNC(=N)N)C(=O)N[C@H](C(=O)N[C@@H](CCC(N)=O)C(=O)N[C@@H](CCC(N)=O)C(=O)N[C@@H](CCCNC(=N)N)C(=O)N[C@@H](CCCCN)C(=O)N[C@@H](CCC(=O)O)C(=O)N[C@@H](CO)C(=O)N[C@@H](CCCCN)C(=O)N[C@@H](CCCCN)C(=O)N1CCC[C@H]1C(=O)N1CCC[C@H]1C(=O)N[C@@H](C)C(=O)N[C@@H](CCCCN)C(=O)N[C@@H](CC(C)C)C(=O)N[C@@H](CCC(N)=O)C(=O)N1CCC[C@H]1C(=O)N[C@@H](CCCNC(=N)N)C(=O)O)C(C)C", "note": "[ghrelin]", "values": [
      {"measurement": "plasma ghrelin concentration 16-18 h after injection", "setting": "[1]; 12 nmol sc daily for 8 weeks, 16-18 h after the last injection", "result": "elevated"},
      {"measurement": "amount of fat (fat depots)", "setting": "[1]; [9]", "result": "normalized the fat depots"},
      {"measurement": "amount of lean tissue (lean body mass, DXA)", "setting": "[1]; [9]", "result": "reversed the effect; also recorded: normalized"},
      {"measurement": "body weight raised", "setting": "[1]; [9]", "result": 8, "unit": "%"},
      {"measurement": "lean body mass, ghrelin versus saline", "setting": "[1]; sham-operated mice, 12 nmol sc daily, 8 weeks", "result": "no difference"},
      {"measurement": "decrease of plasma concentration in the 15 min after the maximum (time point 30 min)", "setting": "[2]; [10]", "result": "approximately 30%"},
      {"measurement": "further decrease of plasma concentration in the following 15 min (time point 45)", "setting": "[2]; [10]", "result": "~60", "unit": "%"},
      {"measurement": "increase in active ghrelin in plasma", "setting": "[2]; [10]", "result": "approximately 10 fold"},
      {"measurement": "plasma level of active ghrelin after 120 min", "setting": "[2]; [10]", "result": "slightly increased"},
      {"measurement": "plasma level of active ghrelin after 240 min", "setting": "[2]; [10]", "result": "back to basal level"},
      {"measurement": "Tmax", "setting": "[2]; male, Sprague Dawley, plasma, sc, ghrelin in a buffer, read-out: time of maximal plasma concentration of ghrelin (converted)", "result": 15, "unit": "min"},
      {"measurement": "increase in plasma growth hormone levels", "setting": "[3]", "result": "more than 5 fold"},
      {"measurement": "tumor progression (CT-scans)", "setting": "[4]; mesothelioma, during the subcutaneous ghrelin treatment, 4 weeks", "result": "did not progress"},
      {"measurement": "body weight and body composition", "setting": "[4]; subcutaneous 0.8 to 1.5 micrograms/kg twice daily before meals for 4 weeks, one patient", "result": "stable body weight and body composition"},
      {"measurement": "ability to eat meals", "setting": "[4]; [11]", "result": "able to eat full plates of meals and finish these; also recorded: increased objective hunger and ability to eat meals"},
      {"measurement": "hunger", "setting": "[4]; [11]", "result": "did not feel more intensified hunger; also recorded: increased objective hunger"},
      {"measurement": "adverse effects", "setting": "[4]; subcutaneous treatment, 4 weeks", "result": "no significant adverse effects"},
      {"measurement": "lab values", "setting": "[4]; subcutaneous treatment, weekly standard laboratory tests", "result": "did not show a substantial difference"},
      {"measurement": "response to ghrelin treatment", "setting": "[5]", "result": "responded well"},
      {"measurement": "increase of food intake", "setting": "[6]", "result": 30, "unit": "%"},
      {"measurement": "food intake", "setting": "[7]", "result": "increase in food intake"},
      {"measurement": "plasma ghrelin 6 h after injection", "setting": "[8]; 12 nmol sc, 6 h", "result": "still elevated"},
      {"measurement": "plasma concentration of active (octanoylated) ghrelin 6 h after injection", "setting": "[8]; 12 nmol sc, 6 h, n=4", "result": "remained high"},
      {"measurement": "plasma concentration of active (octanoylated) ghrelin (ELISA)", "setting": "[8]; 12 nmol sc, n=4", "result": "greatly elevated"},
      {"measurement": "plasma ghrelin concentration (RIA, octanoylated and des-octanoylated)", "setting": "[8]; 12 and 24 nmol sc, n=6 in each group", "result": "raised"}
    ]}
  ]
}
